This is an account of results in patent publication US11517516B2, “Use of ester derivative of tryptophan as deodorant and/or perfume agent” (L'oreal, priority 2014, dated 2022).

Test [1] in a line: ex-vivo olfactory evaluation test on incubated sweat. Particulars: for effect on the unpleasant odor: compared to the negative control (incubated sweat alone), concentrations as tested; for comparison of anti-odor activity, compound 1 versus ethyl N-acetyl-L-tryptophanate: equivalent dose, several concentrations (0.1%, 0.5%, 1%). As to the method:
The deodorant activity was evaluated in the ex-vivo olfactory evaluation test, on incubated sweat.
Tryptophan ethyl ester hydrochloride (compound 1 of the example A-1) was evaluated at various concentrations in a pool of fresh sweat.
The samples were prepared in 10-ml headspace screw bottles, they are incubated at 35° C. for 24 h under stirring. A sample of sweat with 1 mg of anhydrous aluminum hydroxychloride (ACH) in 1 ml of sweat (i.e. 0.1%) is incubated in order to serve as a positive reference (little odor) and a sample of sweat alone is incubated to serve as a negative reference (unpleasant odor).
The samples after incubation are evaluated olfactively by a panel of several people in a blind test on the headspace bottles. The incubated samples of sweat containing ACH and sweat alone are evaluated at the same time in order to be used respectively as […].
3 parameters are evaluated on a scale from 0 to 10: • The residual of the unpleasant odor with 0 for not very unpleasant (positive reference) and 10 for very unpleasant odor (negative reference). • The total power of the odor with 0 for little power and 10 for very powerful. • The pleasantness of the odor with 0 for not very pleasant and 10 for very pleasant.

For test [2], the system named is Corynebacterium xerosis CIP 5216. The test is described as follows: killing test: number of viable micro-organisms after contact. It counts as cell-based. Particulars: 0.5%; for viable micro-organisms, CFU/g of preparation: 35° C., inoculum 1.4E7. The source says: The anti-microbial activity of Tryptophan ethyl ester hydrochloride (compound 1) was valuated in vitro on Corynebacterium xerosis (killing test, quantity of micro-organisms killed). Purpose of test: Quantitative determination of the activity of a cosmetic starting material with respect to Corynebacterium xerosis, a micro-organism involved in the phenomena linked to underarm odor. This micro-organism is placed in optimum growth conditions. Protocol: The model strain used is: Corynebacterium xerosis CIP 5216 (bacteria) The strain is placed into contact with the starting material to be tested in a suitable liquid culture medium. The dilutions of the compounds under evaluation are performed in agar at 1:1000, making it possible, for dispersible compounds under evaluation, to do away with the use of a solvent which could introduce bias in the evaluation of the compounds. In parallel, a growth control, in which the starting material to be tested is replaced with diluent, is prepared in the same conditions. The samples are placed in a rotating incubator at 35° C. and maintained under stirring for the entire duration of the test. After 2, 6 and 24 hours of contact, the number of viable micro-organisms remaining in the mixture is evaluated. The results are expressed as a logarithm of the number of micro-organisms per milliliter of mixture.

Where [3] appears, read: Table 5, 0.5% in incubated sweat, scale 0 to 10.
Where [4] appears, read: incubated sweat, release of odorous volatile molecules.
Where [5] appears, read: Table 3, 0.5% in incubated sweat, scale 0 to 10, panel of 6.
[6] abbreviates: Table 4, 0.3% in incubated sweat, scale 0 to 10.
[7] abbreviates: Table 2, 0.1% in sweat, scale 0 to 10, panel of 6.
Setting [8] is: Table 2, 0.5% in sweat, scale 0 to 10, panel of 6.
Where [9] appears, read: Table 2, 1% in sweat, scale 0 to 10, panel of 6.
Where [10] appears, read: Table 1, 0.1% in sweat, 35° C. 24 h, scale 0 to 10, panel of 6.
The mark [11] stands for this setting: Table 1, 0.5% in sweat, scale 0 to 10, panel of 6.
[12] abbreviates: Table 1, 1% in sweat, scale 0 to 10, panel of 6.
Setting [13] is: Table 3, positive reference, 1 mg in 1 ml of sweat (0.1%), scale 0 to 10.
[14] abbreviates: Table 4, positive reference, 1 mg in 1 ml of sweat (0.1%), scale 0 to 10.
Setting [15] is: Table 5, positive reference, 1 mg in 1 ml of sweat (0.1%), scale 0 to 10.

On to `N[C@@H](Cc1c[nH]c2ccccc12)C(=O)OCc1ccccc1` [Compound 7, Tryptophan benzyl ester], for which, in test [1] (setting [3]), the “Pleasantness of the odor” value worked out at 3.7, the Power is 4.3 and the Residual unpleasant odor was 3. The “effect on the unpleasant odor” value in test [1] is listed as “effect on the reduction of the unpleasant odor”. The “Pleasantness of the odor” value in test [1] (setting [4]) is recorded as “generate a pleasant odor”.
For `C=CC(C)CCCC(C)(C)OC(=O)[C@@H](N)Cc1c[nH]c2ccccc12` (stereo partly drawn) [Compound 5, Tryptophan dihydromyrcenyl ester], in test [1] (setting [5]), the “Pleasantness of the odor” value amounted to 5.8, the Power was 5.5 and the Residual unpleasant odor is reported as 2.5. Moreover, the “effect on the unpleasant odor” value in test [1] is on record as “effect of reducing the unpleasant odor”. Moreover, the “Pleasantness of the odor” value in test [1] (setting [4]) is given as “contribute to the pleasantness of the odor”.
For `CCCCCCCCOC(=O)[C@@H](N)Cc1c[nH]c2ccccc12.Cl` [Compound 6, Tryptophan octyl ester hydrochloride], the “Pleasantness of the odor” value in test [1] (setting [6]) is reported as 7; in test [1] (setting [3]), 7.7; in test [1] (setting [4]), “generates a pleasant odor”. The Power in test [1] (setting [6]) worked out at 7; in test [1] (setting [3]), 6.3. Moreover, the Residual unpleasant odor in test [1] (setting [6]) and in test [1] (setting [3]) was 0.3 each time. Further, the “effect on the unpleasant odor” value in test [1] is “effect of reducing the unpleasant odor”.
As for `CCOC(=O)[C@H](Cc1c[nH]c2ccccc12)NC(C)=O` [Compound 2, ethyl N-Acetyl-L-tryptophanate, reference compound], the Power worked out at 6.2 in test [1] (setting [7]), 6.8 in test [1] (setting [8]) and 6.6 in test [1] (setting [9]). Further, the Residual unpleasant odor amounted to 6.8 in test [1] (setting [7]), 7.5 in test [1] (setting [8]) and 7 in test [1] (setting [9]). Moreover, the “comparison of anti-odor activity, compound 1 versus ethyl N-acetyl-L-tryptophanate” value in test [1] (incubated sweat) is reported as “not as effective as Tryptophan ethyl ester hydrochloride”.
For the compound `CCOC(=O)[C@@H](N)Cc1c[nH]c2ccccc12.Cl` [Compound 1, L-tryptophan ethyl ester chlorhydride], the “anti-microbial activity on C. xerosis” value in test [2] (in terms of the growth control) was “excellent anti-microbial activity”. The entries for the “viable micro-organisms, CFU/g of preparation” value in test [2] (2 hours of contact), in test [2] (6 hours of contact) and in test [2] (24 hours of contact) were 4.6E3 CFU/g of preparation, 4.0E1 CFU/g of preparation and <20 CFU/g of preparation, respectively. Further, the “reduction in terms of the growth control” value in test [2] (after 2 h of contact) was 3.3 Log Units; in test [2] (after 6 h of contact), 5.4 Log; in test [2] (after 24 h of contact), “greater than or equal to 6.6 Log”. Moreover, the Power in test [1] (setting [10]) is reported as 3.2; in test [1] (setting [11]) it was 2.8; in test [1] (setting [12]) it was 1.4; in test [1] (setting [7]), 3.2; in test [1] (setting [8]), 2.8; in test [1] (setting [9]), 1.4. The Power was 3 in test [1] (setting [6]) and 3.3 in test [1] (setting [3]). Moreover, the Residual unpleasant odor in test [1] (setting [10]) was 3.4; in test [1] (setting [11]), 3.2; in test [1] (setting [12]), 0.6; in test [1] (setting [7]) it was 3.4; in test [1] (setting [8]), 3.2; in test [1] (setting [9]) it was 0.6. The values for the Residual unpleasant odor in test [1] (setting [6]) and in test [1] (setting [3]) were 1.7 and 1.3, respectively. In addition, the “Pleasantness of the odor” value in test [1] (setting [6]) is 5.3; in test [1] (setting [3]), 5.7. Moreover, the “effect on the unpleasant odor” value in test [1] is listed as “clear decrease in the unpleasant odor”. Moreover, the “comparison of anti-odor activity, compound 1 versus ethyl N-acetyl-L-tryptophanate” value in test [1] (incubated sweat) was “superiority”; in test [1] (incubated sweat, listed as Tryptophan ester hydrochloride) it was “better anti-odor activity than the Ethyl N-acetyl-L-tryptophanate”.
“anhydrous aluminum hydroxychloride [ACH, reference compound]”: the Power in test [1] (setting [10]) stood at 1.6; in test [1] (setting [7]), 1.6; in test [1] (setting [13]), 0.8; in test [1] (setting [14]), 2.7; in test [1] (setting [15]), 2. Moreover, the Residual unpleasant odor in test [1] (setting [10]) came to 0.5; in test [1] (setting [7]), 0.5; in test [1] (setting [13]), 0.3; in test [1] (setting [14]) it was 2.7; in test [1] (setting [15]), 1.7. The “Pleasantness of the odor” value in test [1] (setting [13]) is recorded as 4; in test [1] (setting [14]), 3.7; in test [1] (setting [15]) it was 5.
On to `CC(C)(C)OC(=O)[C@@H](N)Cc1c[nH]c2ccccc12.Cl` [Compound 8, Tryptophan tertiobutyl ester hydrochloride], for which, in test [1] (setting [3]), the “Pleasantness of the odor” value came to 5.7, the Power was 4 and the Residual unpleasant odor turned out to be 1.7. The “effect on the unpleasant odor” value in test [1] is “effect on the reduction of the unpleasant odor”. Besides, the “Pleasantness of the odor” value in test [1] (setting [4]) was “generate a pleasant odor”.
For `CC/C=C\CCOC(=O)[C@@H](N)Cc1c[nH]c2ccccc12.Cl` [Compound 4, Tryptophan cis-3-hexenyl ester hydrochloride], in test [1] (setting [5]), the “Pleasantness of the odor” value came out at 6, the Power is 7 and the Residual unpleasant odor came out at 2.5. Besides, the “effect on the unpleasant odor” value in test [1] is reported as “effect of reducing the unpleasant odor”. In addition, the “Pleasantness of the odor” value in test [1] (setting [4]) was “contribute to the pleasantness of the odor”.
For `CC/C=C\CCOC(=O)[C@@H](N)Cc1c[nH]c2ccccc12` [Compound 3, Tryptophan cis-3-hexenyl ester], in that order: 7.8, 6.8, 1, “effect of reducing the unpleasant odor” and “contribute to the pleasantness of the odor”.
